According to patent US12655116B2, “Substituted isophthalic acid diamides” (Bayer Aktiengesellschaft, priority 2020, dated 2026):

Experiments:
[1] = test system: ECHCG; assay: Pre-emergence herbicidal action against ECHCG; format: in vivo, Echinochloa crus-galli
Method in brief: (§1)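 Seeds sown in sandy loam, soil-covered; compound sprayed on soil surface pre-emergence. Application: WP/EC, 600–800 l/ha, 0.2% wetting agent. Readout: visual % damage at 3 weeks.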

[2] = test system: DIGSA; assay: Pre-emergence herbicidal action against DIGSA; format: in vivo, Digitaria sanguinalis
Method in brief: as §1

[3] = test system: ABUTH; assay: Post-emergence herbicidal action against ABUTH; format: in vivo, Abutilon theophrasti; conditions: visual assessment about 3 weeks after treatment vs untreated controls
Method in brief: (§2)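 Percent herbicidal action is rated by eye about 3 weeks after treatment against untreated controls, where 100% means dead plants and 0% means like controls. Plants in sandy loam are sprayed on green parts at the one-leaf stage with aqueous WP or EC preparations at 600 to 800 l/ha plus 0.2% wetting agent.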

[4] = test system: VIOTR; assay: Pre-emergence herbicidal action against VIOTR; format: in vivo, Viola tricolor
Method in brief: as §1

[5] = test system: SETVI; assay: Post-emergence herbicidal action against SETVI; format: in vivo, Setaria viridis
Method in brief: as §2

[6] = test system: MATIN; assay: Post-emergence herbicidal action against MATIN; format: in vivo, Matricaria inodora
Method in brief: as §2

[7] = test system: ECHCG; assay: Post-emergence herbicidal action against ECHCG; format: in vivo, Echinochloa crus-galli
Method in brief: as §2

[8] = test system: PHBPU; assay: Pre-emergence herbicidal action against PHBPU; format: in vivo, Pharbitis purpurea
Excerpt: Seeds of monocotyledonous and dicotyledonous weed plants and crop plants are laid out in sandy loam soil in wood-fiber pots and covered with soil. The compounds of the invention, formulated in the form of wettable powders (WP) or as emulsion concentrates (EC), are then applied to the surface of the covering soil in the form of an aqueous suspension or emulsion at a water application rate equivalent to 600 to 800 l/ha, with addition of 0.2% wetting agent. After the treatment, the pots are placed in a greenhouse and kept under good growth conditions for the trial plants. The damage to the test plants is scored visually after a test period of 3 weeks by comparison with untreated controls (herbicidal activity in percent (%): 100% activity=the plants have died, 0% activity=like control plants). […] The tables below illustrate, in an illustrative manner, the post-emergence herbicidal action of the compounds of the invention, the herbicidal activity being stated in percent.

[9] = test system: ALOMY; assay: Pre-emergence herbicidal action against ALOMY; format: in vivo, Alopecurus myosuroides; conditions: for Pre-emergence action against ALOMY (herbicidal activity): 80 g/ha, scored visually after 3 weeks vs untreated controls (100% = plants have died, 0% = like control plants)
Method in brief: as §1

[10] = test system: AMARE; assay: Pre-emergence herbicidal action against AMARE; format: in vivo, Amaranthus retroflexus
Method in brief: as §1

[11] = test system: DIGSA; assay: Post-emergence herbicidal action against DIGSA; format: in vivo, Digitaria sanguinalis; conditions: for Post-emergence action against DIGSA in %: 5 g/ha; for Post-emergence action against DIGSA: 20 g/ha
Method in brief: as §2

[12] = test system: AVEFA; assay: Pre-emergence herbicidal action against AVEFA; format: in vivo, Avena fatua; conditions: 80 g/ha, pre-emergence
Method in brief: as §1

[13] = test system: PHBPU; assay: Post-emergence herbicidal action against PHBPU; format: in vivo, Pharbitis purpurea; conditions: dosage 20 g/ha
Method in brief: as §2

[14] = test system: VERPE; assay: Pre-emergence herbicidal action against VERPE; format: in vivo, Veronica persica
Method in brief: as §1

[15] = test system: SETVI; assay: Pre-emergence herbicidal action against SETVI; format: in vivo, Setaria viridis
Method in brief: as §1

[16] = test system: MATIN; assay: Pre-emergence herbicidal action against MATIN; format: in vivo, Matricaria inodora
Method in brief: as §1

[17] = test system: VIOTR; assay: Post-emergence herbicidal action against VIOTR; format: in vivo, Viola tricolor
Method in brief: as §2

[18] = test system: ABUTH; assay: Pre-emergence herbicidal action against ABUTH; format: in vivo, Abutilon theophrasti; conditions: for Pre-emergence action against ABUTH (herbicidal activity): 80 g/ha, scored visually after 3 weeks vs untreated controls (100% = plants have died, 0% = like control plants); for Pre-emergence action against ABUTH (herbicidal activity in percent): dosage 20 g/ha, scored visually after 3 weeks vs untreated controls, 100% = plants have died, 0% = like control plants
Method in brief: as §1

[19] = test system: ALOMY; assay: Post-emergence herbicidal action against ALOMY; format: in vivo, Alopecurus myosuroides; conditions: visual assessment about 3 weeks after treatment vs untreated controls
Method in brief: as §2

[20] = test system: AMARE; assay: Post-emergence herbicidal action against AMARE; format: in vivo, Amaranthus retroflexus; conditions: 20 g/ha, visual assessment about 3 weeks after treatment, 100% = plants have died, 0% = like control plants
Method in brief: as §2

[21] = 20 g/ha, scored visually after 3 weeks vs untreated controls, 100% = plants have died, 0% = like control plants
[22] = 80 g/ha, scored visually after 3 weeks vs untreated controls (100% = plants have died, 0% = like control plants)

Structure (SMILES) | Pre-emergence action against ECHCG in % ([1]; 80 g/ha) [%] | Pre-emergence action against DIGSA in % ([2]; dosage 80 g/ha) [%] | Post-emergence action against ABUTH in % ([3]; dosage 5 g/ha) [%] | Post-emergence action against ABUTH in % ([3]; dosage 20 g/ha) [%] | Pre-emergence action against VIOTR in % ([4]; dosage 20 g/ha) [%] | Pre-emergence action against VIOTR in % ([4]; dosage 80 g/ha) [%] | Post-emergence action against SETVI in % ([5]; dosage 20 g/ha) [%] | Post-emergence action against MATIN in % ([6]; dosage 20 g/ha) [%] | Post-emergence action against ECHCG in % ([7]; dosage 20 g/ha) [%] | Pre-emergence action against PHBPU in % ([8]; dosage 80 g/ha) [%] | Pre-emergence action against ALOMY (herbicidal activity) [9] [%] | Pre-emergence action against AMARE in % [10, 21] [%] | Pre-emergence action against AMARE in % [10, 22] [%] | Pre-emergence action against AVEFA in % [12] [%] | Post-emergence action against PHBPU in % [13] [%] | Pre-emergence action against SETVI in % ([15]; dosage 80 g/ha) [%] | Pre-emergence action against MATIN in % ([16]; dosage 80 g/ha) [%] | Pre-emergence action against ABUTH (herbicidal activity) [18] [%] | Pre-emergence action against ABUTH (herbicidal activity in percent) [18] [%] | Post-emergence action against ALOMY in % ([19]; dosage 20 g/ha) [%] | other results
Cn1nnnc1NC(=O)c1ccc(C(F)(F)F)c(C(=O)NCC2CC2)c1Br [Example 1-210] | 100 | 100 | 80 | 90 | 100 | 100 | 90 | 90 | 80 | 80 | 80 | 100 | 100 | 90 | 100 | 100 | 100 | 100 | 100 | 100 | Pre-emergence action against ECHCG in % ([1]; 20 g/ha): 80%; Pre-emergence action against DIGSA in % ([2]; dosage 20 g/ha): 100%; Post-emergence action against SETVI in % ([5]; dosage 5 g/ha): 80%; Post-emergence action against MATIN in % ([6]; dosage 5 g/ha): 80%; Post-emergence action against DIGSA in % [11]: 80%; Post-emergence action against DIGSA [11]: 90%; Pre-emergence action against VERPE in % ([14]; dosage 80 g/ha): 80%; Pre-emergence action against MATIN in % ([16]; dosage 20 g/ha): 100%; Post-emergence action against VIOTR in % ([17]; 20 g/ha): 90%; Post-emergence action against ALOMY in % ([19]; dosage 5 g/ha): 80%
CCn1nnnc1NC(=O)c1ccc(C(F)(F)F)c(C(=O)NCC2CC2)c1Br [Example 2-210] | 100 | 100 | 80 | 80 | 100 | 100 | 80 | 90 | 90 | 90 | 100 | 100 | 100 | 90 | 90 | 100 | 100 | 100 | 100 | 90 | Pre-emergence action against ECHCG in % ([1]; 20 g/ha): 80%; Post-emergence action at 20 g/ha against AMARE in % [20]: 100%; Pre-emergence action against DIGSA in % ([2]; dosage 20 g/ha): 100%; Pre-emergence action against PHBPU in % ([8]; dosage 20 g/ha): 80%; Post-emergence action against DIGSA in % [11]: 80%; Post-emergence action against DIGSA [11]: 90%; Pre-emergence action against MATIN in % ([16]; dosage 20 g/ha): 100%; Post-emergence action against VIOTR in % ([17]; 20 g/ha): 90%
COCCNC(=O)c1c(Br)ccc(C(=O)Nc2nnnn2C)c1Cl [Example 1-186] | 80 |  | 90 | 90 |  |  | 80 |  | 90 | 80 | 90 | 80 | 100 |  |  | 80 | 90 | 100 | 100 | 90 | Post-emergence action at 20 g/ha against AMARE in % [20]: 100%; Post-emergence action against ALOMY in % ([19]; dosage 5 g/ha): 80%
CCn1nnnc1NC(=O)c1ccc(Br)c(C(=O)NCC(F)(F)F)c1Cl [Example 2-181] | 100 | 100 |  |  |  | 80 | 90 | 90 | 90 | 80 | 80 | 100 | 100 | 90 | 90 | 100 | 100 | 100 | 100 | 90 | Post-emergence action against MATIN in % ([6]; dosage 5 g/ha): 80%; Pre-emergence action against VERPE in % ([14]; dosage 80 g/ha): 100%; Pre-emergence action against MATIN in % ([16]; dosage 20 g/ha): 90%
Cc1nnc(NC(=O)c2ccc(C(F)(F)F)c(C(=O)NC3CCC3)c2C)o1 [Example 6-256] | 100 | 100 | 80 | 90 | 90 | 90 |  |  | 90 | 80 | 90 | 90 | 100 | 80 | 90 | 100 | 90 | 100 |  |  | Pre-emergence action against ECHCG in % ([1]; 20 g/ha): 80%; Post-emergence action at 20 g/ha against AMARE in % [20]: 90%; Pre-emergence action against DIGSA in % ([2]; dosage 20 g/ha): 90%; Post-emergence action against ECHCG in % ([7]; dosage 5 g/ha): 90%; Pre-emergence action against ALOMY ([9]; 20 g/ha, scored visually after 3 weeks, 100% = plants have died, 0% = like control plants): 80%; Post-emergence action against DIGSA in % [11]: 80%; Post-emergence action against DIGSA [11]: 90%; Pre-emergence action against VERPE in % ([14]; dosage 20 g/ha): 80%; Pre-emergence action against VERPE in % ([14]; dosage 80 g/ha): 80%; Pre-emergence action against SETVI in % ([15]; dosage 20 g/ha): 80%
CCn1nnnc1NC(=O)c1ccc(Br)c(C(=O)NC(C)C)c1Cl [Example 2-185] | 90 |  | 90 | 100 | 80 | 100 | 80 | 90 | 100 | 100 | 90 | 100 | 100 | 100 |  | 100 | 100 | 100 | 100 | 90 | Post-emergence action at 20 g/ha against AMARE in % [20]: 100%; Post-emergence action against MATIN in % ([6]; dosage 5 g/ha): 80%; Pre-emergence action against MATIN in % ([16]; dosage 20 g/ha): 100%; Post-emergence action against VIOTR in % ([17]; 5 g/ha): 100%; Post-emergence action against VIOTR in % ([17]; 20 g/ha): 100%
